Tests used:
NCI-H292 = assay: Antiproliferative activity against human NCI-H292 cells by MTT assay; assay type: functional, cell-based
A549 = assay: Antiproliferative activity against human A549 cells by MTT assay; assay type: functional, cell-based

IC50 (NCI-H292) [µM] | IC50 (A549) [µM] | Compound
19.1 | 25.2 | CC1(C)CCC[C@]2(C)[C@H]3C[C@H]4C(CO)=CCO[C@@H]4[C@H]3C[C@H](O)[C@@H]12
20.3 | 47.8 | C=C1CC[C@@H]2[C@](C)(CCC[C@]2(C)C(=O)O)[C@H]1CC/C(C)=C/C(=O)O [AGATHIC ACID]
17.8 | 21.5 | CCC(C)C1NC(=O)C(NC(=O)/C=C/c2ccccc2)C(C(C)C)Oc2ccc(cc2)/C=C/NC1=O (stereo unspecified)

Source: ChEMBL document CHEMBL3351395, “Podoimbricatin A, a cytotoxic diterpenoid with an unprecedented 6/6/5/6-fused tetracyclic ring system from the twigs and leaves of Podocarpus imbricatus” (Bioorg Med Chem Lett, 2014)
